In patent US10899769B2, “Imidazopiperazinone inhibitors of transcription activating proteins” (Board of Regents, The University of Texas System, priority 2018, dated 2021) one finds IC50 data, which are given here for 23 molecules.

One assay has as its target BRD4(49-170) bromodomain (Homo sapiens (Human), UniProt O60885). The experiment in a line: BRD4 AlphaScreen Assay. The settings on record: binding to biotin-H4(1-21) Ac-K5/8/12/16. The gist of the method: (§1)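 AlphaScreen binding of GST-bromodomain to biotin-H4(1-21) Ac-K5/8/12/16: 5 nM CBP with 20 nM peptide, or 2.5 nM BRD4 with 10 nM peptide, in 50 mM HEPES 7.5, […], 1 mM TCEP, 0.003% Tween-20. Compound preincubated 30 min, then beads 2 h, room temperature. IC50 from variable-slope fit.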
For orientation: In Alpha technology, singlet oxygen from a donor bead excites a nearby acceptor bead.

In assay [1] the target is GST-CBP(1081-1197) bromodomain (Homo sapiens (Human), UniProt Q92793). The experiment in a line: CBP AlphaScreen Assay. Conditions: binding to biotin-H4(1-21) Ac-K5/8/12/16. In a few lines:
as §1

GST-CBP(1081-1197) bromodomain, sequence (Q92793 1081-1197): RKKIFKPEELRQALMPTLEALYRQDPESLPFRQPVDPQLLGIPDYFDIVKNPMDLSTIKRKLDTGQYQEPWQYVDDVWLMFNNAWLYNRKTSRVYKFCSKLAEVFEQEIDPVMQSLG

By IC50 is commonly meant the concentration that gives 50% inhibition. A low value points to inhibition by little substance. On to `Cc1ncc(-c2nc3cccc(-c4nc(C5CC5)n5c4CN(C)C(=O)C5C)c3cc2C(F)F)s1` (stereo not shown) [Example 68, 3-cyclopropyl-1-(3-(difluoromethyl)-2-(2-methylthiazol-5-yl)quinolin-5-yl)-5,7-dimethyl-7,8-dihydroimidazo[1,5-a] pyrazin-6(5H)-one], for which the 50% inhibitory concentration (IC50) at BRD4(49-170) bromodomain was determined as 163 nM; in assay [1], 5 nM.
For `CC1C(=O)N(C)Cc2c(-c3cccc4nc(-c5cn(C)cn5)c(C(F)F)cc34)nc(C3CC3)n21` (stereo not shown) [Example 69, 3-cyclopropyl-1-(3-(difluoromethyl)-2-(1-methyl-1H-imidazol-4-yl)quinolin-5-yl)-5,7-dimethyl-7,8-dihydroimidazo[1,5-a] pyrazin-6(5H)-one], the half-inhibitory concentration (IC50) on BRD4(49-170) bromodomain worked out at 1530 nM; in assay [1] it was 13 nM.
For `Cc1cn(-c2cc3cccc(-c4nc(C5CC5)n5c4CN(C)C(=O)C5C)c3cn2)cn1` (stereo not shown) [Example 70, 3-cyclopropyl-5,7-dimethyl-1-(3-(4-methyl-1H-imidazol-1-yl)isoquinolin-8-yl)-7,8-dihydroimidazo[1,5-a] pyrazin-6(5H)-one] the same measures were 667 nM and 2 nM.
Consider `Cc1ncn(-c2cc3cccc(-c4nc(C5CC5)n5c4CN(C)C(=O)C5C)c3cn2)n1` (stereo not shown) [Example 71, 3-cyclopropyl-5,7-dimethyl-1-(3-(3-methyl-1H-1,2,4-triazol-1-yl)isoquinolin-8-yl)-7,8-dihydroimidazo[1,5-a] pyrazin-6(5H)-one], for which the IC50 came to 868 nM on BRD4(49-170) bromodomain and 4 nM in assay [1].
For `Cc1cn(-c2cc3cccc(-c4nc(C5CC5)n5c4CN(C)C(=O)C5C)c3cn2)nc1C` (stereo not shown) [Example 72, 3-cyclopropyl-1-(3-(3,4-dimethyl-1H-pyrazol-1-yl)isoquinolin-8-yl)-5,7-dimethyl-7,8-dihydroimidazo[1,5-a] pyrazin-6(5H)-one], the IC50 was determined as 297 nM on BRD4(49-170) bromodomain and 2 nM in assay [1].
Take `Cc1ccn(-c2cc3cccc(-c4nc(C5CC5)n5c4CN(C)C(=O)C5C)c3cn2)n1` (stereo not shown) [Example 73, 3-cyclopropyl-5,7-dimethyl-1-(3-(3-methyl-1H-pyrazol-1-yl)isoquinolin-8-yl)-7,8-dihydroimidazo[1,5-a] pyrazin-6(5H)-one]: the values for the IC50 (at BRD4(49-170) bromodomain; in assay [1]) were 408 nM and 3 nM, respectively.
For `CC1C(=O)N(C)Cc2c(-c3cccc4nc(-c5ncco5)c(C(F)F)cc34)nc(C3CC3)n21` (stereo not shown) [Example 74, 3-cyclopropyl-1-(3-(difluoromethyl)-2-(oxazol-2-yl)quinolin-5-yl)-5,7-dimethyl-7,8-dihydroimidazo[1,5-a] pyrazin-6(5H)-one], the results for the 50% inhibitory concentration (IC50) (on BRD4(49-170) bromodomain; in assay [1]) were 179 nM and 4 nM, respectively.
For `CC1C(=O)N(C)Cc2c(-c3cccc4nc(-c5cnn(C)c5)c(C(F)F)cc34)nc(C3CCNCC3)n21` (stereo not shown) [Example 75, 1-(3-(difluoromethyl)-2-(1-methyl-1H-pyrazol-4-yl)quinolin-5-yl)-5,7-dimethyl-3-(piperidin-4-yl)-7,8-dihydroimidazo[1,5-a] pyrazin-6(5H)-one] the same measures were 12000 nM and 172 nM.
The matching figures for `CC1C(=O)N(C)Cc2c(-c3cccc4cc(-c5cn(C)cn5)ncc34)nc(C3CC3)n21` (stereo not shown) [Example 76, 3-cyclopropyl-5,7-dimethyl-1-(3-(1-methyl-1H-imidazol-4-yl)isoquinolin-8-yl)-7,8-dihydroimidazo[1,5-a] pyrazin-6(5H)-one]: 384 nM and 2 nM.
For `CC1C(=O)N(C)Cc2c(-c3cccc4nc(-c5cnn(C)c5)c(C(F)F)cc34)nc(C3CCN(CC(F)(F)F)CC3)n21` (stereo not shown) [Example 77, 1-(3-(difluoromethyl)-2-(1-methyl-1H-pyrazol-4-yl)quinolin-5-yl)-5,7-dimethyl-3-(1-(2,2,2-trifluoroethyl)piperidin-4-yl)-7,8-dihydroimidazo [1,5-a] pyrazin-6(5H)-one] the same measures were 2890 nM and 34 nM.
Turning to `CC1C(=O)N(C)Cc2c(-c3cccc4nc(-c5cnn(C)c5)c(C(F)F)cc34)nc(C3CCN(CC(F)F)CC3)n21` (stereo not shown) [Example 78, 3-(1-(2,2-difluoroethyl)piperidin-4-yl)-1-(3-(difluoromethyl)-2-(1-methyl-1H-pyrazol-4-yl)quinolin-5-yl)-5,7-dimethyl-7,8-dihydroimidazo[1,5-a] pyrazin-6(5H)-one], the IC50 worked out at 3770 nM on BRD4(49-170) bromodomain and 41 nM in assay [1].
The matching figures for `CNC(=O)N1CCC(c2nc(-c3cccc4nc(-c5cnn(C)c5)c(C(F)F)cc34)c3n2C(C)C(=O)N(C)C3)CC1` (stereo not shown) [Example 79, 4-(1-(3-(difluoromethyl)-2-(1-methyl-1H-pyrazol-4-yl)quinolin-5-yl)-5,7-dimethyl-6-oxo-5,6,7,8-tetrahydroimidazo[1,5-a]pyrazin-3-yl)-N-methylpiperidine-1-carboxamide]: 2430 nM and 39 nM.
Turning to `CC(=O)N1CCC(c2nc(-c3cccc4nc(-c5cnn(C)c5)c(C(F)F)cc34)c3n2C(C)C(=O)N(C)C3)CC1` (stereo not shown) [Example 80, 3-(1-acetylpiperidin-4-yl)-1-(3-(difluoromethyl)-2-(1-methyl-1H-pyrazol-4-yl)quinolin-5-yl)-5,7-dimethyl-7,8-dihydroimidazo[1,5-a] pyrazin-6(5H)-one], the results for the concentration for half-maximal inhibition (IC50) (at BRD4(49-170) bromodomain; in assay [1]) were 2560 nM and 45 nM, respectively.
For `CC1C(=O)N(C)Cc2c(-c3cccc4nc(-c5cnn(C)c5)c(C(F)F)cc34)nc(C3CCN(CCF)CC3)n21` (stereo not shown) [Example 81, 1-(3-(difluoromethyl)-2-(1-methyl-1H-pyrazol-4-yl)quinolin-5-yl)-3-(1-(2-fluoroethyl)piperidin-4-yl)-5,7-dimethyl-7,8-dihydroimidazo[1,5-a] pyrazin-6(5H)-one], the IC50 was found to be 9630 nM on BRD4(49-170) bromodomain and 153 nM in assay [1].
In the case of `COCCN1CCC(c2nc(-c3cccc4nc(-c5cnn(C)c5)c(C(F)F)cc34)c3n2C(C)C(=O)N(C)C3)CC1` (stereo not shown) [Example 82, 1-(3-(difluoromethyl)-2-(1-methyl-1H-pyrazol-4-yl)quinolin-5-yl)-3-(1-(2-methoxyethyl)piperidin-4-yl)-5,7-dimethyl-7,8-dihydroimidazo[1,5-a] pyrazin-6(5H)-one], the 50% inhibitory concentration (IC50) amounted to 12300 nM on BRD4(49-170) bromodomain and 227 nM in assay [1].
The matching figures for `CC1C(=O)N(C)Cc2c(-c3cccc4nc(-c5cnn(C)c5)c(C(F)F)cc34)nc(C3CCN(S(C)(=O)=O)CC3)n21` (stereo not shown) [Example 83, 1-(3-(difluoromethyl)-2-(1-methyl-1H-pyrazol-4-yl)quinolin-5-yl)-5,7-dimethyl-3-(1-(methylsulfonyl)piperidin-4-yl)-7,8-dihydroimidazo[1,5-a] pyrazin-6(5H)-one]: 3230 nM and 42 nM.
The matching figures for `CC1C(=O)N(C)Cc2c(-c3cccc4nc(-c5cnn(C)c5)c(C(F)F)cc34)nc(C3CCN(CCO)CC3)n21` (stereo not shown) [Example 84, 1-(3-(difluoromethyl)-2-(1-methyl-1H-pyrazol-4-yl)quinolin-5-yl)-3-(1-(2-hydroxyethyl)piperidin-4-yl)-5,7-dimethyl-7,8-dihydroimidazo[1,5-a] pyrazin-6(5H)-one]: 11700 nM and 230 nM.
For `CC1C(=O)N(C)Cc2c(-c3cccc4cc(-c5ccn(C)n5)ncc34)nc(C3CCOCC3)n21` (stereo not shown) [Example 85, 5,7-dimethyl-1-(3-(1-methyl-1H-pyrazol-3-yl)isoquinolin-8-yl)-3-(tetrahydro-2H-pyran-4-yl)-7,8-dihydroimidazo[1,5-a] pyrazin-6(5H)-one], the IC50 at BRD4(49-170) bromodomain is 24100 nM; in assay [1], 78 nM.
For `CC1C(=O)N(C)Cc2c(-c3cccc4cc(-c5ccn(C)n5)ncc34)nc(C3CCOCC3)n21` (stereo not shown) [Example 86, 5,7-dimethyl-1-(3-(1-methyl-1H-pyrazol-3-yl)isoquinolin-8-yl)-3-(tetrahydro-2H-pyran-4-yl)-7,8-dihydroimidazo[1,5-a] pyrazin-6(5H)-one] the same measures were 232 nM and 1 nM.
For `Cc1nn(C)cc1-c1cc2cccc(-c3nc(C4CCOCC4)n4c3CN(C)C(=O)C4C)c2cn1` (stereo not shown) [Example 87, 1-(3-(1,3-dimethyl-1H-pyrazol-4-yl)isoquinolin-8-yl)-5,7-dimethyl-3-(tetrahydro-2H-pyran-4-yl)-7,8-dihydroimidazo[1,5-a] pyrazin-6(5H)-one] the same measures were 10700 nM and 77 nM.
The matching figures for `Cc1nn(C)cc1-c1cc2cccc(-c3nc(C4CCOCC4)n4c3CN(C)C(=O)C4C)c2cn1` (stereo not shown) [Example 88, 1-(3-(1,3-dimethyl-1H-pyrazol-4-yl)isoquinolin-8-yl)-5,7-dimethyl-3-(tetrahydro-2H-pyran-4-yl)-7,8-dihydroimidazo[1,5-a] pyrazin-6(5H)-one]: 101 nM and 1 nM.
Consider `C[C@@H]1C(=O)N(C)Cc2c(-c3cccc4nc(-c5ccn(C)n5)c(C(F)F)cc34)nc(C3CCOCC3)n21` [Example 89a, (R)-1-(3-(difluoromethyl)-2-(1-methyl-1H-pyrazol-3-yl)quinolin-5-yl)-5,7-dimethyl-3-(tetrahydro-2H-pyran-4-yl)-7,8-dihydroimidazo[1,5-a] pyrazin-6(5H)-one], for which the IC50 at BRD4(49-170) bromodomain stood at 101 nM; in assay [1] it was 1 nM.
The matching figures for `C[C@H]1C(=O)N(C)Cc2c(-c3cccc4nc(-c5ccn(C)n5)c(C(F)F)cc34)nc(C3CCOCC3)n21` [Example 89b, (S)-1-(3-(difluoromethyl)-2-(1-methyl-1H-pyrazol-3-yl)quinolin-5-yl)-5,7-dimethyl-3-(tetrahydro-2H-pyran-4-yl)-7,8-dihydroimidazo[1,5-a] pyrazin-6(5H)-one]: 20800 nM and 482 nM.
